Experimental data as given in patent US11975048B2, “Long-acting fatty acid-conjugated GnRH derivatives and pharmaceutical compositions containing same” (NOVEL PHARMA INC., priority 2019, dated 2024).
Square brackets hold non-standard residues; d marks the D form. Peptide text beside a SMILES is read from it. * marks the point of attachment. Palmitoyl = CCCCCCCCCCCCCCCC(=O)*

Assays:
[1] = cited from earlier work
DU-145 = test: Cell viability assay (CCK-8), prostate cancer cell line DU-145; assay type: cell-based
Protocol: (§1) GnRH derivatives are clinically applied to the therapy of diseases including breast cancer, prostate cancer, endometriosis, central precocious puberty, and the like. […] An assay for cell viability was performed using the Cell Counting Kit-8 (CCK-8, manufactured by DOJINDO). Each of the cell lines was separated from the T75 flask by trypsinization and transferred to 96-well plates at a density of 1×10^4 cells/mL for DU-145 and at a density of 1×10^5 cells/mL for PC3 and LNCaP, followed by incubation for one hour for attachment.
(§2) Subsequently, each cell line was treated with 100 μM and 200 μM of each of the derivatives of Comparative Examples 1 to 3 and Examples 9 to 16 and the control. In brief, 1% methyl β-cyclodextrin was used as a negative control for cell viability while 0.1% sodium dodecyl sulfate (SDS) served as a positive control. After 48 hours of incubation, the existing culture medium was removed, and 100 μL of fresh culture medium and 10 μL of CCK-8 solution were applied to each cell line. Again, after 48 hours of incubation, the medium solution was replaced by 100 μL of fresh culture medium and 10 μL of CCK-8 solution. The cells were incubated for 4 hours, and then the absorbance was measured at 450 nm to assess cell viability.

PC3 = test: Cell viability assay (CCK-8), prostate cancer cell line PC3; assay type: cell-based
Protocol: as §1, §2

LNCaP = test: Cell viability assay (CCK-8), prostate cancer cell line LNCaP; assay type: cell-based
Protocol: as §1, §2

[2] = Blood concentration over time and pharmacokinetic analysis after single subcutaneous administration (LC/MSMS); assay type: in vivo, female SD rats; conditions: rats, 12.5 mg/kg s.c. once
Protocol: The present inventor carried out animal experiments (female SD rats, nine weeks old) in order to examine the increased in vivo half-lives of the prepared fatty acid-conjugated GnRH derivatives. […] DMSO (dimethyl sulfoxide) was used as a solvent as needed. Before administration and at 0.5, 1, 2, and 6 hours and on days 1, 3, 7, 10, 14, 21, and 28 after administration, blood samples were taken from the tail vein of the rats and measured for the blood concentrations of Leuprolide and the derivatives of the Examples, using LC/MSMS. If the concentration reached about 4 ng/mL at a specific time point, no measurements were further made for the next time point.
In the following table, the numerical unit is ng/mL.
The measurement results are graphically depicted in FIGS. 10 to 12. Based on the results, pharmacokinetic analysis was carried out by calculating the half-life (t1/2), clearance rate (CL), volume of distribution (Vd), time to reach the maximum concentration following drug administration (Tmax), maximum concentration following drug administration (Cmax), and systemic exposure to drug (AUCt). The analysis results are as follows.

ovary of female rats = test: Assay for ovarian morphological change (H&E stained ovaries); assay type: in vivo; conditions: single subcutaneous dose 12.5 mg/kg (as cyclodextrin compositions), day 28, versus non-treated and methyl-β-cyclodextrin groups
Protocol: Experiments were carried out to examine whether or not the fatty acid-conjugated GnRH derivatives maintain the functional characteristics and incur a morphological change in the ovary.
The pharmaceutical compositions of Examples 9, 10, 13, 14, 15, and 16 were each subcutaneously injected at a single dose of 12.5 mg/kg once at the back of the neck to female rats 9 weeks old. Rats to which no drugs were administered were used as a non-treated control while an aqueous solution of 3 mg of methyl-β-cyclodextrin was injected to a negative control. Each group consisted of 3 rats.
On day 28 after injection, the rats were subjected to an autopsy to excise the ovaries which were then stained with hematoxylin-eosin (H&E stain).
Briefly, ovaries were stained with H&E and observed as follows.
11. After finishing the above procedures, the specimen slides were scanned using a ScanScope® AT slider scanner (Aperio) and the images thus stored were analyzed using the ImageScope program (Aperio). The scanned images are depicted in FIGS. 6 to 9.
It is known that when administered to rats, a GnRH agonist reduces the formation of secondary follicles and Graafian follicles (see: Mohammadbeigi et al., Short-term Administration of Gonadotropin-releasing Hormone Agonist (Buserelin) Induces Apoptosis in Rat Ovarian Developmental Follicles, July 2016). In this experiment, secondary and Graafian follicles on ovary images in each treatment group were indicted by arrows to examine whether the number of the follicles is reduced or not.

[3] = emulsion, same dose; cited from earlier work
[4] = treatment conc. 200 μM, listed as Comparative Example 3

## CC(C)C[C@H](NC(=O)CNC(=O)[C@H](Cc1ccc(O)cc1)NC(=O)[C@H](CO)NC(=O)[C@H](Cc1c[nH]c2ccccc12)NC(=O)[C@H](Cc1cnc[nH]1)NC(=O)[C@@H]1CCC(=O)N1)C(=O)N[C@@H](CCCNC(=N)N)C(=O)N1CCC[C@H]1C(=O)NCC(N)=O [C. Example 1]
[1]
  in vivo half-life in circulating blood: 2 to 4 min

## CC(C)C[C@H](NC(=O)[C@@H](Cc1c[nH]c2ccccc12)NC(=O)[C@H](Cc1ccc(O)cc1)NC(=O)[C@H](CO)NC(=O)[C@H](Cc1c[nH]c2ccccc12)NC(=O)[C@H](Cc1c[nH]cn1)NC(=O)[C@@H]1CCC(=O)N1)C(=O)N[C@@H](CCCNC(=N)N)C(=O)N1CCC[C@H]1C(=O)NCC(N)=O [C. Example 3, pyroGlu-His-Trp-Ser-Tyr-D-Trp-Leu-Arg-Pro-Gly-NH2]
DU-145; treatment conc. 100 μM
  Viability of DU-145 relative to negative control 1% methyl-β-cyclodextrin (%): 100.92 ± 2.98%
DU-145; treatment conc. 200 μM
  Viability of DU-145 relative to negative control 1% methyl-β-cyclodextrin (%): 94.27 ± 3.47%
DU-145; [4]
  Viability of DU-145 relative to negative control 1% methyl-β-cyclodextrin (%): about 94%
PC3; treatment conc. 100 μM
  Viability of PC3 relative to negative control 1% methyl-ß-cyclodextrin (%): 99.67 ± 3.17%
PC3; treatment conc. 200 μM
  Viability of PC3 relative to negative control 1% methyl-ß-cyclodextrin (%): 95.44 ± 4.03%
PC3; [4]
  Viability of PC3 relative to negative control 1% methyl-ß-cyclodextrin (%): about 95%
LNCaP; treatment conc. 100 μM
  Viability of LNCaP relative to negative control 1% methyl-β-cyclodextrin (%): 92.89 ± 4.33%
LNCaP; treatment conc. 200 μM
  Viability of LNCaP relative to negative control 1% methyl-β-cyclodextrin (%): 90.22 ± 4.03%
LNCaP; [4]
  Viability of LNCaP relative to negative control 1% methyl-β-cyclodextrin (%): about 90%

## CCCCCCCCCCCCCCCC(=O)N[C@@H](CCC(N)=O)C(=O)N[C@@H](Cc1c[nH]cn1)C(=O)N[C@@H](Cc1c[nH]c2ccccc12)C(=O)N[C@@H](CO)C(=O)N[C@@H](Cc1ccc(O)cc1)C(=O)N[C@H](CC(C)C)C(=O)N[C@@H](CC(C)C)C(=O)N[C@@H](CCCNC(=N)N)C(=O)N1CCC[C@H]1C(=O)NCC [Example 4, Palmitic acid-Gln-His-Trp-Ser-Tyr-D-Leu-Leu-Arg-Pro-NHEt] (Palmitoyl-QHWSY[dL]LRP-NHEt)
[2]; female, SD, rat, blood, sc, 12.5 mg/kg, read-out: AUCt (systemic exposure to drug) (converted)
  AUC(0-t): 5190 ng·h/mL
[2]; female, SD, rat, blood, sc, 12.5 mg/kg, read-out: Cmax (maximum concentration)
  Cmax: 52.2 ng/mL
[2]; female, SD, rat, blood, sc, 12.5 mg/kg, read-out: t1/2 (half-life) (converted)
  half-life: 115 h
[2]; female, SD, rat, blood, sc, read-out: Tmax (time to reach the maximum concentration) (converted)
  Tmax: 6 h
[2]; 12.5 mg/kg
  CL (clearance rate): 0.051 (mg/kg)/(ng/mL)/Day
  Vd (volume of distribution): 0.351 (mg/kg)/(ng/mL)

## CCCCCCCCCCCCCCCC(=O)N[C@@H](CCC(N)=O)C(=O)N[C@@H](Cc1c[nH]cn1)C(=O)N[C@@H](Cc1c[nH]c2ccccc12)C(=O)N[C@@H](CO)C(=O)N[C@@H](Cc1ccc(O)cc1)C(=O)N[C@H](CC(C)C)C(=O)N[C@@H](CC(C)C)C(=O)N[C@@H](CCCNC(=N)N)C(=O)N1CCC[C@H]1C(=O)NCC [Example 6, Palmitic acid-Gln-His-Trp-Ser-Tyr-D-Leu-Leu-Arg-Pro-NHEt] (Palmitoyl-QHWSY[dL]LRP-NHEt)
[2]
  Tmax (time to reach the maximum concentration): 6 h
[2]; 12.5 mg/kg
  CL (clearance rate): 0.075 (mg/kg)/(ng/mL)/Day
  Cmax (maximum concentration): 45.7 ng/mL
  Vd (volume of distribution): 0.436 (mg/kg)/(ng/mL)
  t1/2 (half-life): 96.7 h

## CCCCCCCCCCCCOS(=O)(=O)[O-].[Na+] [Positive Control (0.1% SDS), sodium dodecyl sulfate]
DU-145; positive control, 0.1% SDS
  Viability of DU-145 relative to negative control 1% methyl-β-cyclodextrin (%): 18.18 ± 2.32%
PC3; positive control, 0.1% SDS
  Viability of PC3 relative to negative control 1% methyl-ß-cyclodextrin (%): 15.11 ± 1.72%
LNCaP; positive control, 0.1% SDS
  Viability of LNCaP relative to negative control 1% methyl-β-cyclodextrin (%): 20.45 ± 1.58%

## Arachidic acid-Gln-His-Trp-Ser-Tyr-D-Leu-Leu-Arg-Pro-NHEt ({Arachidic acid}-QHWSY[dL]LRP-NHEt; also: acetate salt) [Example 8]
Ovary of female rats
  numbers of secondary or Graafian follicles in the ovary: decreased

## Arachidic acid-Glu-His-Trp-Ser-Tyr-D-Leu-Leu-Arg-Pro-NHEt ({Arachidic acid}-EHWSY[dL]LRP-NHEt; also: acetate salt) [Example 7]
Ovary of female rats
  numbers of secondary or Graafian follicles in the ovary: decreased

## Lauric acid-Gln-His-Trp-Ser-Tyr-D-Leu-Leu-Arg-Pro-NHEt ({Lauric acid}-QHWSY[dL]LRP-NHEt; also: acetate salt) [Example 2]
Ovary of female rats
  numbers of secondary or Graafian follicles in the ovary: decreased

## Lauric acid-Glu-His-Trp-Ser-Tyr-D-Leu-Leu-Arg-Pro-NHEt ({Lauric acid}-EHWSY[dL]LRP-NHEt; also: acetate salt) [Example 1]
Ovary of female rats
  numbers of secondary or Graafian follicles in the ovary: decreased

## Palmitic acid-Glu-His-Trp-Ser-Tyr-D-Leu-Leu-Arg-Pro-NHEt (Palmitoyl-EHWSY[dL]LRP-NHEt; also: acetate salt) [Example 5]
Ovary of female rats
  numbers of secondary or Graafian follicles in the ovary: decreased

## dexamethasone palmitate
[3]
  anti-inflammatory effect relative to dexamethasone alone: 5.6 fold
